Reference: patent publication US6512000B1, “Aminocarbonyl-substituted benzimidazoles having tryptase-inhibitory activity” (Boehringer Ingelheim Pharma KG, priority 1999, dated 2003)
Where a name gives a salt, the structure may show the parent alone.

target: T1, rh beta tryptase (Homo sapiens, UniProt P20231); experiment: Tryptase inhibition test (cleavage of N-p-tosyl-Gly-Pro-Lys-para-nitroaniline, p-nitroaniline measured at 405 nm); assay type: biochemical; details: concentration at which 50% of the tryptase enzyme activity is inhibited; substrate 0.6 mM, pH 7.4, 37° C.
T1 construct: purchased Promega
Method: The compounds according to the invention are characterised by their tryptase-inhibiting activity. This ability to inhibit tryptase was investigated using the test described below.
The measurement is carried out in Tris HCl buffer (100 mM), which additionally contains calcium (5 mM) and heparin ([…]), at pH 7.4. The standard used is rh beta tryptase which may be obtained commercially from Promega, for example. The substrate used is N-p-tosyl-Gly-Pro-Lys-para-nitroaniline in a concentration of 0.6 mM. The substrate is digested with tryptase to form p-nitroaniline which can be measured at 405 nm. Usually, an incubation period of 5 minutes and an incubation temperature of 37° C. are chosen. The enzyme activity used is 0.91 U/ml. The measurements are carried out in an Autoanalyser (Cobas Bio) made by Hofmann LaRoche. The potential inhibitory substances are used in concentrations of 10 μM in the screening, the inhibition of the tryptase being given in percent. The IC50 is determined at over 70% inhibition (concentration at which 50% of the enzyme activity is inhibited). After 5 minutes' pre-incubation of the potential inhibitory substances, the substrate is added to start the reaction, the formation of p-nitroaniline being taken as a measurement of the enzyme activity after 5 minutes, after testing the linearity.
The data obtained after the above test has been carried out (% inhibition) are assembled in Table 25 for the compounds according to the invention. The IC50 values obtained for the compounds according to the invention can be found in Table 26.
Table 26 contains the IC50 binding values obtained for the compounds according to the invention. These were measured as described above.

T1 sequence (P20231 31-275): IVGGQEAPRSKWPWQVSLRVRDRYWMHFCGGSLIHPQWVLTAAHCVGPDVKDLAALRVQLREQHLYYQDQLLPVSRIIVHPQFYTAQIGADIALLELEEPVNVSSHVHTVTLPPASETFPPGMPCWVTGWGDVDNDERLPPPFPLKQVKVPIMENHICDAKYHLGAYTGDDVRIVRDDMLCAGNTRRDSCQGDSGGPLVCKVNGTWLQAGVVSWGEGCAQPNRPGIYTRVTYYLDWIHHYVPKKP

Point of comparison: `Cn1c(CCc2ccc(CN)cc2)nc2cc(C(=O)N(CCCc3ccccc3)Cc3ccc(CN)cc3)ccc21` [Example 42, 2-[2-(4-aminomethyl-phenyl)-ethyl]-1-methyl-benzimidazol-5-yl-carboxylic Acid-N-(4-aminomethyl-benzyl)-N-(3-phenylpropyl)-amide-dihydrochloride], IC50 836 nM. Against it:
- CN(Cc1ccc(N(C)C)cc1)C(=O)c1ccc2c(c1)nc(CCc1ccc(C(=N)N)cc1)n2C [Example 6, 2-[2-(4-Amidinophenyl)-ethyl]-1-methyl-benzimidazol-5-yl-carboxylic Acid-N-(4-dimethylaminobenzyl)-N-methyl-amide-hydrochloride] — within 1.5-fold, 571 nM
- CN(CCC(=N)N)C(=O)c1ccc2c(c1)nc(CCc1ccc(C(=N)N)cc1)n2C [Example 7, 2-[2-(4-Amidinophenyl)-ethyl]-1-methyl-benzimidazol-5-yl-carboxylic Acid-N-(2-amidinoethyl)-N-methyl-amide-dihydrochloride] — within 1.5-fold, 670 nM
- Cn1c(CCc2ccc(C(=N)N)cc2)nc2cc(C(=O)N(CCC(=N)N)Cc3cnc4ccccc4c3)ccc21 [Example 8, 2-[2-(4-Amidinophenyl)-ethyl]-1-methyl-benzimidazol-5-yl-carboxylic Acid-N-(2-amidinoethyl)-N-(quinolin-3-yl-methyl)-amide-dihydrochloride] — 4.2-fold lower, 201 nM
- Cn1c(CCc2ccc(C(=N)N)cc2)nc2cc(C(=O)N(CCC(=N)N)Cc3ccccc3)ccc21 [Example 9, 2-[2-(4-Amidinophenyl)-ethyl]-1-methyl-benzimidazol-5-yl-carboxylic Acid-N-(2-amidinoethyl)-N-benzyl-amide-dihydrochloride] — 6-fold lower, 140 nM
- Cn1c(CCc2ccc(C(=N)N)cc2)nc2cc(C(=O)N(CCC(=N)N)Cc3cccnc3)ccc21 [Example 10, 2-[2-(4-Amidinophenyl)-ethyl]-1-methyl-benzimidazol-5-yl-carboxylic Acid-N-(2-amidinoethyl)-N-(3-pyridylmethyl)-amide-dihydrochloride] — 2.6-fold lower, 316 nM
- CC(C)CN(CCC(=N)N)C(=O)c1ccc2c(c1)nc(CCc1ccc(C(=N)N)cc1)n2C [Example 11, 2-[2-(4-Amidinophenyl)-ethyl]-1-methyl-benzimidazol-5-yl-carboxylic Acid-N-(2-amidinoethyl)-N-iso-butyl-amide-dihydrochloride] — 9.7-fold lower, 86 nM
- Cn1c(CCc2ccc(C(=N)N)cc2)nc2cc(C(=O)NCCCc3ccccc3)ccc21 [Example 12, 2-[2-(4-Amidinophenyl)-ethyl]-1-methyl-benzimidazol-5-yl-carboxylic Acid-N-(3-phenylpropyl)-amide-hydrochloride] — 1.7-fold lower, 479 nM
- Cc1ccccc1N1CCCN(C(=O)c2ccc3c(c2)nc(CCc2ccc(C(=N)N)cc2)n3C)CC1 [Example 15, 2-[2-(4-Amidinophenyl)-ethyl]-1-methyl-benzimidazol-5-yl-carboxylic Acid-[N′-(2-methyl-phenyl)-diazepide]-hydrochloride] — 8.5-fold lower, 98 nM
- Cn1c(CCc2ccc(C(=N)N)cc2)nc2cc(C(=O)N(CCCc3ccccc3)Cc3ccc(C(=N)N)cc3)ccc21 [Example 16, 2-[2-(4-Amidinophenyl)-ethyl]-1-methyl-benzimidazol-5-yl-carboxylic Acid-N-(4-amidinobenzyl)-N-(3-phenylpropyl)-amide-dihydrochloride] — 5.4-fold lower, 154 nM
- Cn1c(CCc2ccc(C(=N)N)cc2)nc2cc(C(=O)N(CCC(c3ccccc3)c3ccccc3)Cc3ccc(C(=N)N)cc3)ccc21 [Example 17, 2-[2-(4-Amidinophenyl)-ethyl]-1-methyl-benzimidazol-5-yl-carboxylic Acid-N-(4-amidinobenzyl)-N-(3,3-diphenylpropyl)-amide-dihydrochloride] — 7.8-fold lower, 107 nM
- CN(C(=O)c1ccc2c(c1)nc(CCc1ccc(C(=N)N)cc1)n2C)c1cccnc1 [Example 18, 2-[2-(4-Amidinophenyl)-ethyl]-1-methyl-benzimidazol-5-yl-carboxylic Acid-N-methyl-N-(3-pyridyl)-amide-hydrochloride] — 2.7-fold lower, 312 nM
- Cn1c(CCc2ccc(C(=N)N)cc2)nc2cc(C(=O)N(CCN(Cc3ccccc3)Cc3ccccc3)c3ccccc3)ccc21 [Example 19] — 26-fold lower, 32 nM
- Cn1c(CCc2ccc(C(=N)N)cc2)nc2cc(C(=O)N(CCC(=N)N)c3ccc4ccccc4c3)ccc21 [Example 20, 2-[2-(4-Amidinophenyl)-ethyl]-1-methyl-benzimidazol-5-yl-carboxylic Acid-N-(2-amidinoethyl)-N-(2-naphthyl)-amide-dihydrochloride] — 2.7-fold lower, 310 nM
- Cn1c(CCc2ccc(C(=N)N)cc2)nc2cc(C(=O)N(CCC(=N)N)c3ccccc3)ccc21 [Example 21, 2-[2-(4-Amidinophenyl)-ethyl]-1-methyl-benzimidazol-5-yl-carboxylic Acid-N-(2-amidinoethyl)-N-phenyl-amide-dihydrochloride] — 16-fold lower, 51 nM
- CCc1cccc(N(CCC(=N)N)C(=O)c2ccc3c(c2)nc(CCc2ccc(C(=N)N)cc2)n3C)c1 [Example 22, 2-[2-(4-Amidinophenyl)-ethyl]-1-methyl-benzimidazol-5-yl-carboxylic Acid-N-(2-amidinoethyl)-N-(3-ethyl-phenyl)-amide-dihydrochloride] — 15-fold lower, 56 nM
- Cn1c(CCc2ccc(C(=N)N)cc2)nc2cc(C(=O)N(CCC(=N)N)c3cccc(Oc4ccccc4)c3)ccc21 [Example 23, 2-[2-(4-Amidinophenyl)-ethyl]-1-methyl-benzimidazol-5-yl-carboxylic Acid-N-(2-amidinoethyl)-N-(3-phenoxy-phenyl)-amide-dihydrochloride] — 17-fold lower, 49 nM
- Cn1c(CCc2ccc(C(=N)N)cc2)nc2cc(C(=O)N(CCC(=N)N)CCc3ccccc3)ccc21 [Example 24, 2-[2-(4-Amidinophenyl)-ethyl]-1-methyl-benzimidazol-5-yl-carboxylic Acid-N-(2-amidinoethyl)-N-(2-phenylethyl)-amide-dihydrochloride] — 52-fold lower, 16 nM
- Cn1c(CCc2ccc(C(=N)N)cc2)nc2cc(C(=O)N(CCC(=N)N)C3CCCCCCC3)ccc21 [Example 25, 2-[2-(4-Amidinophenyl)-ethyl]-1-methyl-benzimidazol-5-yl-carboxylic Acid-N-(2-amidinoethyl)-N-cyclooctyl-amide-dihydrochloride] — 15-fold lower, 55 nM
- Cc1ccc(N(CCC(=N)N)C(=O)c2ccc3c(c2)nc(CCc2ccc(C(=N)N)cc2)n3C)cc1 [Example 26, 2-[2-(4-Amidinophenyl)-ethyl]-1-methyl-benzimidazol-5-yl-carboxylic Acid-N-(2-amidinoethyl)-N-(4-methyl-phenyl)-amide-dihydrochloride] — 5-fold lower, 168 nM
- CC(C)N(CCC(=N)N)C(=O)c1ccc2c(c1)nc(CCc1ccc(C(=N)N)cc1)n2C [Example 27, 2-[2-(4-Amidinophenyl)-ethyl]-1-methyl-benzimidazol-5-yl-carboxylic Acid-N-(2-amidinoethyl)-N-iso-propyl-amide-dihydrochloride] — 5.5-fold lower, 153 nM
- CCOC(=O)C(Cc1ccc(C(=N)N)cc1)N(C)C(=O)c1ccc2c(c1)nc(CCc1ccc(C(=N)N)cc1)n2C (stereo not shown) [Example 29, Ethyl 2-{2-[2-(4-Amidinophenyl)-ethyl]-1-methyl-benzimidazol-5-yl-carbonyl-(methylamino)}-3-(4-amidinophenyl)-propionate-formate] — 5.3-fold lower, 158 nM
- Cn1c(CCc2ccc(C(=N)N)cc2)nc2cc(C(=O)N(CCNCc3ccccc3)C3CCCCC3)ccc21 [Example 36, 2-[2-(4-Amidinophenyl)-ethyl]-1-methyl-benzimidazol-5-yl-carboxylic Acid-[N-(2-(N′-benzylamino)-ethyl)-N-cyclohexyl-amide]-dihydrochloride] — 12-fold lower, 67 nM
- Cn1c(CCc2ccc(C(=N)N)cc2)nc2cc(C(=O)N(CCN)C3CCCCC3)ccc21 [Example 37, 2-[2-(4-Amidinophenyl)-ethyl]-1-methyl-benzimidazol-5-yl-carboxylic Acid-[N-(2-amino-ethyl)-N-cyclohexyl-amide]-dihydrochloride] — 12-fold lower, 68 nM
- Cn1c(CCc2ccc(C(=N)N)cc2)nc2cc(C(=O)NCCNc3ccccc3)ccc21 [Example 38, 2-[2-(4-Amidinophenyl)-ethyl]-1-methyl-benzimidazol-5-yl-carboxylic Acid-N-(2-phenylamino-ethyl)-amide-dihydrochloride] — 7.4-fold lower, 113 nM
- Cn1c(CCc2ccc(CN)cc2)nc2cc(C(=O)NCCC(c3ccccc3)c3ccccc3)ccc21 [Example 40, 2-[2-(4-Aminomethyl-phenyl)-ethyl]-1-methyl-benzimidazol-5-yl-carboxylic Acid-N-(3,3-diphenylpropyl)-amide-dihydrochloride] — 4.4-fold lower, 192 nM
- Cc1ccccc1N1CCCN(C(=O)c2ccc3c(c2)nc(CCc2ccc(CN)cc2)n3C)CC1 [Example 41, 2-[2-(4-Aminomethyl-phenyl)-ethyl]-1-methyl-benzimidazol-5-yl-carboxylic Acid-[N′-(2-methyl-phenyl)-diazepide]-hydrochloride] — 4.9-fold lower, 172 nM
- Cn1c(CCc2ccc(CN)cc2)nc2cc(C(=O)N(CCC(c3ccccc3)c3ccccc3)Cc3ccc(CN)cc3)ccc21 [Example 43, 2-[2-(4-Aminomethyl-phenyl)-ethyl]-1-methyl-benzimidazol-5-yl-carboxylic Acid-N-(4-aminomethylbenzyl)-N-(3,3-diphenylpropyl)-amide-dihydrochloride] — 2.6-fold lower, 319 nM
